pIC50: −log10 of the molar value.
Target: T1, IGF-1R Ba/F3 (Homo sapiens, UniProt P08069)
T1 construct: fused on or other part: TEL- (or BCR-) IGF-1R in Ba/F3: the kinase part holds the site
Assay: Ba/F3 Cell Viability Inhibition Assay (IGF-1R Ba/F3)
Assay type: cell-based, murine
Details: Tel-TK transformed Ba/F3 cells, 48 hours, Britelite luminescence
Method in brief: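 IL-3-independent murine Ba/F3 cells transformed with a TEL/BCR-fused IGF-1R kinase were seeded at 3750 cells/well and exposed to serially diluted compound for 48 h at 37 °C. Viability was read by Britelite luminescence. IC50 is the concentration giving 50% of DMSO-control viability, from a logistic fit.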

T1 sequence (P08069 999-1274 limits assumed): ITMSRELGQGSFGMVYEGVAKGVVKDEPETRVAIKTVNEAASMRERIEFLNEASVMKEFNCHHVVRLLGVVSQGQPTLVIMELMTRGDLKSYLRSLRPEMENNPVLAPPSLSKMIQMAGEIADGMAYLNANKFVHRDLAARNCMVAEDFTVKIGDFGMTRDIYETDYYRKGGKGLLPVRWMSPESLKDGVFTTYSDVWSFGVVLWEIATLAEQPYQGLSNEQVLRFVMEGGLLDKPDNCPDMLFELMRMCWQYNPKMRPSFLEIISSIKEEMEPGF

Compound | pIC50
Cc1cc(Nc2ncc(Cl)c(NC3CCCCNC3=O)n2)c(F)cc1C1CCN(C)CC1 (centres unmarked) [Compound 9, 3-(5-chloro-2-(2-fluoro-5-methyl-4-(1-methylpiperidin-4-yl)phenylamino)pyrimidin-4-ylamino)azepan-2-one] | 7.06
CC(=O)N1CCC(C(=O)N2CCC(c3cc(F)c(Nc4ncc(Cl)c(Nc5cc(C)[nH]n5)n4)cc3C)CC2)CC1 [Compound 114] | 7.32
CCc1cc(Nc2nc(Nc3cc(C)c(C4CCN(C5CS(=O)(=O)C5)CC4)cc3F)ncc2Cl)n[nH]1 [Compound 264, 5-Chloro-N2-{4-[1-(1,1-dioxo-1λ6-thietan-3-yl)-piperidin-4-yl]-2-fluoro-5-methyl-phenyl}-N4-(5-ethyl-1H-pyrazol-3-yl)-pyrimidine-2,4-diamine] | 7.68
Cc1cc(Nc2nc(Nc3cc(C)c(C4CCNC(C)C4)cc3F)ncc2Cl)n[nH]1 (centres unmarked) [Compound 273, 5-chloro-N2-(2-fluoro-5-methyl-4-(2-methylpiperidin-4-yl)phenyl)-N4-(5-methyl-1H-pyrazol-3-yl)pyrimidine-2,4-diamine] | 7.74
CCc1cc(Nc2nc(Nc3cc(C)c(C4CCN(CC(N)=O)CC4)cc3F)ncc2Cl)n[nH]1 [Compound 263, 2-(4-(4-(5-chloro-4-(5-ethyl-1H-pyrazol-3-ylamino)pyrimidin-2-ylamino)-5-fluoro-2-methylphenyl)piperidin-1-yl)acetamide] | 7.48
Cc1cc(Nc2nc(Nc3cc(C)c(C4CCN(C(=O)N5CCNC5=O)CC4)cc3C)ncc2Cl)n[nH]1 [Compound 113, 1-(4-(4-(5-chloro-4-(5-methyl-1H-pyrazol-3-ylamino)pyrimidin-2-ylamino)-2,5-dimethylphenyl)piperidine-1-carbonyl)imidazolidin-2-one] | 7.89
Cc1cc(Nc2nc(Nc3cc(C)c(C4CCCN(CC(N)=O)C4)cc3C)ncc2Cl)n[nH]1 (centres unmarked) [Compound 41, 2-(3-(4-(5-chloro-4-(5-methyl-1H-pyrazol-3-ylamino)pyrimidin-2-ylamino)-2,5-dimethylphenyl)piperidin-1-yl)acetamide] | 7.59
Cc1cc(Nc2nc(Nc3cc(C)c(C4CCN(C(=O)[C@@H]5CC(O)CN5C)CC4)cc3F)ncc2Cl)n[nH]1 (stereo partly drawn) [Compound 128, (4-(4-(5-chloro-4-(5-methyl-1H-pyrazol-3-ylamino)pyrimidin-2-ylamino)-5-fluoro-2-methylphenyl)piperidin-1-yl)((2S)-4-hydroxy-1-methylpyrrolidin-2-yl)methanone] | 6.76
Cc1cc(Nc2nc(Nc3cc(C)c(C4CCN([C@@H]5CCN(S(C)(=O)=O)C5)CC4)cc3F)ncc2Cl)n[nH]1 [Compound 312, (R)-5-chloro-N2-(2-fluoro-5-methyl-4-(1-(1-(methylsulfonyl)pyrrolidin-3-yl)piperidin-4-yl)phenyl)-N4-(5-methyl-1H-pyrazol-3-yl)pyrimidine-2,4-diamine] | 7.60
Cc1cc(Nc2nc(Nc3cc(C)c(C4CCN(C(=O)CCN5CCCC5)CC4)cc3C)ncc2Cl)n[nH]1 [Compound 226, 1-(4-(4-(5-chloro-4-(5-methyl-1H-pyrazol-3-ylamino)pyrimidin-2-ylamino)-2,5-dimethylphenyl)piperidin-1-yl)-3-(pyrrolidin-1-yl)propan-1-one] | 7.21
Cc1cc(Nc2nc(Nc3cc(C)c(C4CCN(C(=O)c5cnn(C)c5C(F)(F)F)CC4)cc3F)ncc2Cl)n[nH]1 [Compound 130, (4-(4-(5-chloro-4-(5-methyl-1H-pyrazol-3-ylamino)pyrimidin-2-ylamino)-5-fluoro-2-methylphenyl)piperidin-1-yl)(1-methyl-5-(trifluoromethyl)-1H-pyrazol-4-yl)methanone] | 7.21
Cc1cc(Nc2nc(Nc3cc(C)c(C4CCN(C=O)CC4)cc3F)ncc2Cl)n[nH]1 [Compound 206, 4-(4-(5-chloro-4-(5-methyl-1H-pyrazol-3-ylamino)pyrimidin-2-ylamino)-5-fluoro-2-methylphenyl)piperidine-1-carbaldehyde] | 7.52
Cc1cc(Nc2nc(Nc3cc(C)c(C4CCN(CC(N)=O)CC4)cc3C)ncc2Cl)n[nH]1 [Compound 37, 2-(4-(4-(5-chloro-4-(5-methyl-1H-pyrazol-3-ylamino)pyrimidin-2-ylamino)-2,5-dimethylphenyl)piperidin-1-yl)acetamide] | 7.89
Cc1cc(Nc2nc(Nc3cc(C)c(C4CCNCC4)cc3C)ncc2C)n[nH]1 [Compound 178, N2-(2,5-dimethyl-4-(piperidin-4-yl)phenyl)-5-methyl-N4-(5-methyl-1H-pyrazol-3-yl)pyrimidine-2,4-diamine] | 5.49
Cc1cc(Nc2nc(Nc3cc(C)c(C4CCN(S(=O)(=O)CCCN5C[C@@H](O)[C@H](O)C5)CC4)cc3C)ncc2Cl)n[nH]1 [Compound 196, (3R,4R)-1-(3-(4-(4-(5-chloro-4-(5-methyl-1H-pyrazol-3-ylamino)pyrimidin-2-ylamino)-2,5-dimethylphenyl)piperidin-1-ylsulfonyl)propyl)pyrrolidine-3,4-diol] | 6.43
Cc1cc(Nc2nc(Nc3cc(C)c(C4CCN(Cc5cncnc5)CC4)cc3F)ncc2Cl)n[nH]1 [Compound 314, 5-Chloro-N^2-(2-fluoro-5-methyl-4-(1-(pyrimidin-5-ylmethyl)piperidin-4-yl)phenyl)-N^4-(5-methyl-1H-pyrazol-3-yl)pyrimidine-2,4-diamine] | 7.43
CNC(=O)CN1CCC[C@H](c2cc(C)c(Nc3ncc(Cl)c(Nc4cc(C)[nH]n4)n3)cc2C)C1 (single isomer, unassigned) [Compound 207] | 7.59
Cc1cc(Nc2nc(Nc3cc(C(F)(F)F)c(C4CCNCC4)cc3F)ncc2Cl)n[nH]1 [Compound 253, 5-chloro-N2-(2-fluoro-4-(piperidin-4-yl)-5-(trifluoromethyl)phenyl)-N4-(5-methyl-1H-pyrazol-3-yl)pyrimidine-2,4-diamine] | 7.12
Cc1cc(Nc2ncc(Cl)c(Nc3cc[nH]n3)n2)c(OC(C)C)cc1C1CCN(C)CC1 [Compound 161, 5-chloro-N2-(2-isopropoxy-5-methyl-4-(1-methylpiperidin-4-yl)phenyl)-N4-(1H-pyrazol-3-yl)pyrimidine-2,4-diamine] | 6.48
Cc1cc(Nc2nc(Nc3cc(C)c(C4CCN([C@H]5CC[C@@H](O)CC5)CC4)cc3F)ncc2Cl)n[nH]1 [Compound 311, Cis-4-(4-(4-(5-chloro-4-(5-methyl-1H-pyrazol-3-ylamino)pyrimidin-2-ylamino)-5-fluoro-2-methylphenyl)piperidin-1-yl)cyclohexanol] | 7.68
Cc1cc(Nc2nc(Nc3cc(C)c(C4CCN(S(C)(=O)=O)CC4)cc3F)ncc2Cl)n[nH]1 [Compound 62, 5-Chloro-N2-(2-fluoro-5-methyl-4-(1-(methylsulfonyl)piperidin-4-yl)phenyl)-N4-(5-methyl-1H-pyrazol-3-yl)pyrimidine-2,4-diamine] | 8.30
Cc1cc(Nc2nc(Nc3cc(C)c(C4CCNCC4)cc3F)ncc2C(F)(F)F)n[nH]1 [Compound 4, N2-(2-fluoro-5-methyl-4-(piperidin-4-yl)phenyl)-N4-(5-methyl-1H-pyrazol-3-yl)-5-(trifluoromethyl)pyrimidine-2,4-diamine] | 6.82
Cc1cc(Nc2nc(Nc3cc(C)c(C4CCN(C(=O)CCCN5CCCC5)CC4)cc3C)ncc2Cl)n[nH]1 [Compound 227, 1-(4-(4-(5-chloro-4-(5-methyl-1H-pyrazol-3-ylamino)pyrimidin-2-ylamino)-2,5-dimethylphenyl)piperidin-1-yl)-4-(pyrrolidin-1-yl)butan-1-one] | 6.91

Reference: patent publication US8859574B2 (IRM LLC, priority 2008, dated 2014)
